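All cell lines were grown in 96-well plates and treated with compound for 48 hours. Abbreviation: GI50, concentration required for 50% inhibition of growth.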 The source made the active and inactive calls. Rule as the data show it: active = GI50 up to about 1.1 µM and inactive = higher.
How the values were obtained:
Assay in all cases: inhibition of tumour cell growth, NCI panel, 48 h
[1] = test system: HCT-15
[2] = test system: CCRF-CEM
[3] = test system: OVCAR-8
[4] = test system: SK-MEL-28
[5] = test system: TK-10
[6] = test system: UACC-257
[7] = test system: U-251
[8] = test system: RXF 393
[9] = test system: K562
[10] = test system: EKVX
[11] = test system: HCT-116
[12] = test system: OVCAR-4
[13] = test system: SF-295
[14] = test system: M14
[15] = test system: SK-OV-3
[16] = test system: HCC 2998
[17] = test system: HOP-62
[18] = test system: SR
[19] = test system: IGROV-1
[20] = test system: RPMI-8226

Measured: GI50

CS(=O)(=O)Nc1ccc(Nc2c3ccccc3nc3ccccc23)cc1
inactive: [3] 2.77 µM | [4] 4.75 µM | [5] 2.57 µM | [6] 1.36 µM | [7] 1.74 µM | [8] 5.73 µM | [9] 2.23 µM | [10] 4.55 µM | [11] 1.83 µM | [12] 4.17 µM | [13] 1.66 µM | [14] 3.37 µM | [15] 1.89 µM | [16] 4.25 µM | [19] 2.09 µM | [20] 2.04 µM
2.31 µM: [1]
active: [2] 0.459 µM | [17] 1.08 µM | [18] 0.0789 µM

C=C1CC2(OC1=O)c1ccccc1CCc1ccccc12
active: [2] 0.627 µM | [18] 0.497 µM
1.91 µM: [1]
inactive: [3] 4.48 µM | [4] 1.81 µM | [5] 2.84 µM | [6] 3.82 µM | [7] 9.12 µM | [8] 1.66 µM | [9] 1.71 µM | [10] 7.38 µM | [11] 1.44 µM | [12] 1.93 µM | [13] 16.1 µM | [14] 1.97 µM | [15] 17.7 µM | [16] 2.54 µM | [17] 26.1 µM | [19] 7.23 µM | [20] 2.07 µM

CC1=C(C)C(=O)C2=C(OCCCO2)C1=O
inactive: [2] 2.43 µM | [3] 18.7 µM | [4] 35.6 µM | [5] > 10 µM | [6] > 10 µM | [7] > 100 µM | [8] > 10 µM | [9] 21.6 µM | [10] 17.2 µM | [11] > 10 µM | [12] > 10 µM | [13] 29.1 µM | [14] 17 µM | [15] > 100 µM | [16] 59.4 µM | [17] > 100 µM | [18] 21.9 µM | [19] 18.2 µM | [20] 16.5 µM
> 100 µM: [1]

COC(=O)C(CC(=O)Nc1ccc(C)cc1)C(=O)C(=O)Nc1ccccc1C(C)C (stereo not given)
inactive: [2] > 100 µM | [3] > 100 µM | [4] > 100 µM | [5] > 100 µM | [6] > 100 µM | [7] > 100 µM | [8] > 100 µM | [9] > 100 µM | [10] > 100 µM | [11] > 100 µM | [12] > 100 µM | [13] > 100 µM | [14] > 100 µM | [15] > 100 µM | [16] > 100 µM | [17] > 100 µM | [18] > 100 µM | [19] > 100 µM | [20] 62.4 µM
> 100 µM: [1]

O=C1N[C@H]2c3c(Cl)sc(Cl)c3C(=O)[C@H]2O1
2.38 µM: [1]
inactive: [2] 2.58 µM | [3] 4.31 µM | [4] 6.79 µM | [5] 64.1 µM | [6] 16.8 µM | [7] 5.51 µM | [8] 25.6 µM | [9] 2.99 µM | [10] 12.3 µM | [11] 3.64 µM | [12] 21.9 µM | [13] 18.8 µM | [14] 9.82 µM | [15] 23.1 µM | [16] 5.46 µM | [17] 20.9 µM | [18] 2.09 µM | [19] 3.55 µM | [20] 19.7 µM

CCN(CC)c1ccc(NC(=S)NN(C)C)cc1
inactive: [2] > 10 µM | [3] > 10 µM | [4] > 10 µM | [5] > 10 µM | [6] > 10 µM | [7] > 10 µM | [8] > 10 µM | [9] > 10 µM | [10] > 10 µM | [11] > 10 µM | [12] > 10 µM | [13] > 10 µM | [14] > 10 µM | [15] > 10 µM | [16] > 10 µM | [17] > 10 µM | [18] > 10 µM | [19] > 10 µM | [20] > 10 µM
> 10 µM: [1]

O=C(Nc1ccccc1)c1cc(S(=O)(=O)N2CCNC2=O)c(S)cc1Cl
> 100 µM: [1]
inactive: [2] > 100 µM | [3] > 100 µM | [4] > 100 µM | [5] > 100 µM | [6] > 100 µM | [7] > 100 µM | [8] > 100 µM | [9] > 100 µM | [10] > 100 µM | [11] > 100 µM | [12] > 100 µM | [13] > 100 µM | [14] > 100 µM | [15] > 100 µM | [16] > 100 µM | [17] > 100 µM | [18] > 100 µM | [19] > 100 µM | [20] > 100 µM

CN(C)C(=S)/N=c1\ss/c(=N/c2ccccc2)n1C
inactive: [2] > 100 µM | [3] 73.6 µM | [4] 64.3 µM | [5] > 100 µM | [6] > 100 µM | [7] 46.7 µM | [8] 28.2 µM | [9] > 100 µM | [10] > 100 µM | [11] 38.5 µM | [12] 50.6 µM | [13] 75.9 µM | [14] > 100 µM | [15] 32.4 µM | [16] > 100 µM | [17] 48.1 µM | [18] > 100 µM | [19] > 100 µM | [20] > 100 µM
> 100 µM: [1]

CC(=O)[C@@H](C)C(=O)N1C(=O)OC[C@@]12[C@@H]1CC[C@@H](C1)C2(C)C
> 100 µM: [1]
inactive: [2] > 100 µM | [3] > 100 µM | [4] > 100 µM | [5] > 100 µM | [6] > 100 µM | [7] > 100 µM | [8] > 100 µM | [9] > 100 µM | [10] > 100 µM | [11] > 100 µM | [12] > 100 µM | [13] > 100 µM | [14] > 100 µM | [15] > 100 µM | [16] > 100 µM | [17] > 100 µM | [18] 78.7 µM | [19] > 100 µM | [20] > 100 µM

CCOC(=O)c1c(-c2ccccc2)nc2ccccc2c1O
> 100 µM: [1]
inactive: [2] > 10 µM | [3] > 100 µM | [4] > 100 µM | [5] > 100 µM | [6] > 100 µM | [7] > 100 µM | [8] > 100 µM | [9] > 100 µM | [10] > 100 µM | [11] > 100 µM | [12] > 100 µM | [13] > 100 µM | [14] > 100 µM | [15] > 100 µM | [16] > 100 µM | [17] > 100 µM | [18] > 100 µM | [19] > 100 µM | [20] > 100 µM

COC(=O)CCC1=C(CC(=O)OC)C(C)(OC)N/C1=N/C(=O)OCc1ccccc1 (stereo not given)
> 100 µM: [1]
inactive: [2] > 100 µM | [3] > 100 µM | [4] > 100 µM | [5] > 100 µM | [6] > 100 µM | [7] > 100 µM | [8] > 100 µM | [9] > 100 µM | [10] > 100 µM | [11] > 100 µM | [12] > 100 µM | [13] > 100 µM | [14] > 100 µM | [15] > 100 µM | [16] > 100 µM | [17] > 100 µM | [18] > 100 µM | [19] > 100 µM | [20] > 100 µM

c1ccc2c(c1)N=c1ccccc1=P21c2ccccc2Nc2ccccc21
17.2 µM: [1]
active: [2] 0.174 µM | [3] 0.521 µM | [4] 0.986 µM | [5] 0.998 µM | [6] 0.39 µM | [7] 0.366 µM | [8] 0.438 µM | [9] 0.202 µM | [11] 0.242 µM | [12] 0.601 µM | [13] 0.942 µM | [14] 0.518 µM | [15] 0.265 µM | [16] 0.598 µM | [17] 0.908 µM | [18] 0.31 µM | [19] 0.352 µM | [20] 0.156 µM
inactive: [10] 5.04 µM

N#C/N=C(\NCCc1c[nH]c2ccccc12)NCc1ccccc1
49.4 µM: [1]
inactive: [2] 29.9 µM | [3] > 100 µM | [4] 80.7 µM | [5] 98.4 µM | [6] 37 µM | [7] 35.2 µM | [8] > 100 µM | [9] 42.8 µM | [10] 45.6 µM | [11] 50.9 µM | [12] 61.4 µM | [13] 36 µM | [14] 51.1 µM | [15] > 100 µM | [16] 32.5 µM | [17] > 100 µM | [18] 32.5 µM | [19] > 100 µM | [20] 42.6 µM

CCCCNC(=O)OCCN=c1c2ccccc2ccc2ccccc12
inactive: [2] > 100 µM | [3] > 100 µM | [4] > 100 µM | [5] > 100 µM | [6] > 100 µM | [7] > 100 µM | [8] > 100 µM | [9] > 100 µM | [10] > 100 µM | [11] > 100 µM | [12] > 100 µM | [13] > 100 µM | [14] > 100 µM | [15] > 100 µM | [16] > 100 µM | [17] > 100 µM | [18] > 100 µM | [19] > 100 µM | [20] > 100 µM
> 100 µM: [1]
